Laboratory results taken from patent US10568879B2 (GALAPAGOS NV, priority 2015, dated 2020).

Tests used:
GPR84 [1] = target: T1, GPR84 (Homo sapiens, UniProt Q9NQS5); conditions: literature; cited from earlier work
T1 construct: expressed in transfected cells

human neutrophils = assay: Human neutrophil migration assay; assay type: cell-based; conditions: for IC50: Homo sapiens, Neutrophil, embelin at EC80 as chemotactic agent, 1 h at 37° C., read-out: Human neutrophil migration IC50
Summary of the method: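 Neutrophils freshly isolated from human buffy coats by dextran sedimentation and hypotonic lysis were preincubated with compound for 30 min at room temperature. Chemotaxis then ran in a Transwell system for 1 h at 37° C, 5% CO2. Migrated cells in the lower well were quantified by ATPlite luminescence.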

GPR84 [2] = target: T1, GPR84; assay: GPR84 [35S]GTPγS binding assay; assay type: biochemical; conditions: 3,3′-diindolylmethane at EC80; membranes from stable cell line over expressing GPR84
Summary of the method: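 Antagonist-mode [35S]GTPγS binding on membranes from a GPR84-overexpressing stable line (GDP-preincubated), stimulated with 3,3′-diindolylmethane at EC80. Buffer 20 mM Tris pH 7.5, 5 mM MgCl2, 250 mM NaCl, saponin; 0.1 nM [35S]GTPγS, 90 min at room temperature, SPA bead read-out.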

[3] = Chemical stability in aqueous solutions with different pH; assay type: physicochemical; conditions: 2 μM; for % rem. (2 h) pH 1.2 / % rem. (24 h) pH 1.2: pH 1.2 hydrochloric acid buffer; for % rem. (2 h) pH 1.2 / % rem. (2 h) pH 5.0 / % rem. (2 h) pH 7.4 / % rem. (2 h) pH 9.0: 2 h incubation at 37° C.; for % rem. (24 h) pH 1.2 / % rem. (24 h) pH 5.0 / % rem. (24 h) pH 7.4 / % rem. (24 h) pH 9.0: 24 h incubation at 37° C.; for % rem. (2 h) pH 5.0 / % rem. (24 h) pH 5.0: pH 5.0 acetate buffer; for % rem. (2 h) pH 7.4 / % rem. (24 h) pH 7.4: pH 7.4 phosphate buffer; for % rem. (2 h) pH 9.0 / % rem. (24 h) pH 9.0: pH 9.0 Tris buffer
Experimental: This in vitro model is aimed at assessing the stability of a test compound in aqueous solutions with different pH. The decrease in parent compound is assessed by measuring the percentage parent remaining after 2 and 24 h incubation at 37° C.
A 2 mM DMSO stock is made for each test compound starting from dry matter. Then a 80 μM working solution of compound in DMSO is made by diluting the 2 mM DMSO.
The 80 μM working solution is diluted to a final concentration of 2 μM-2.5% DMSO in buffer with the desired pH (pH 1.2: hydrochloric acid buffer, pH 5.0: acetate buffer, pH 7.4: phosphate buffer, pH 9.0: Tris buffer) in 96-well plates with glass inserts (Cat no. 548-0201/548-0202, VWR-Thermo Scientific). Two replicates are run for each buffer solution and each time point.
One set of vials is incubated for 24 h at 200 rpm and another for 2 h at 200 rpm. To stop the reaction after the respective incubation times, 4 volumes of acetonitrile containing the internal standard (stop solution) are added to the reaction solution and the vials are vortexed briefly.
For the 0 h incubation, the stop solution with internal standard is first added to the buffer solution in glass vials and then the working solution of test compound (final concentration: 2 μM-2.5% DMSO) is added.
Propranolol is used as internal standard, but if the mass difference is too low with the test compound(s), another product is selected as internal standard. The concentration of the internal standard is chosen to obtain a peak area half of the average peak area of the test compounds and control at time point 0.
Analysis is performed on an LCMS-MS system (API2000 or API4000). The average of the peak areas of the two replicates from the parent compound at time 0 divided by the peak area of the internal standard is considered to be 100% remaining. The percentage remaining after 2 and 24 h of incubation is calculated for all other peaks and the percentage remaining after 2 and 24 h is reported.

[4] = test system: RAW264.7 murine macrophage-like cells; conditions: RAW264.7 cells stimulated with LPS; cited from earlier work

T1 sequence (Q9NQS5 whole entry): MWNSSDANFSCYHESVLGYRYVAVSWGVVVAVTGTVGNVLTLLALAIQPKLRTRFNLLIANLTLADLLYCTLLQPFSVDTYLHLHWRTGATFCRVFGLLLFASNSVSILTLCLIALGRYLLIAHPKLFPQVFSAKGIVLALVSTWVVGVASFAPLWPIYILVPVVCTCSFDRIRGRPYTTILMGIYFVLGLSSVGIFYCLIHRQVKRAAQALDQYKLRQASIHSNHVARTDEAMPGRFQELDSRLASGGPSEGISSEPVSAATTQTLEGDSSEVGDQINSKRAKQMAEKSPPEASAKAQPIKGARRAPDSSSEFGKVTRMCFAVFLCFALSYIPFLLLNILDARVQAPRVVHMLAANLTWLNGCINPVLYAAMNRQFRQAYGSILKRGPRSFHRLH

Compound: c1ccc2c(Cc3c[nH]c4ccccc34)c[nH]c2c1 [3,3′-diindolylmethane, reference compound]
- GPR84 agonist activity (GPR84 [1]): some GPR84 agonist activity
- neutrophil chemotaxis induced by GPR84 agonists (human neutrophils): induce neutrophil chemotaxis

Compound: CCCCCCCCNc1cc(=O)[nH]c(=O)[nH]1 [6-n-octylaminouracil]
- GPR84 agonist activity (GPR84 [1]): some GPR84 agonist activity

Compound: Cc1c2n(c(NCC3CCCO3)cc1=O)CCc1cc(OCC(F)(F)F)ccc1-2 (stereo not shown) [Compound 8, 1-methyl-4-(tetrahydrofuran-2-ylmethylamino)-9-(2,2,2-trifluoroethoxy)-6,7-dihydrobenzo[a]quinolizin-2-one]
- IC50 (GPR84 [2]): 100 to 500 nM
- % rem. (2 h) pH 1.2 [3]: *** (>80%)
- % rem. (24 h) pH 1.2 [3]: *** (>80%)
- % rem. (2 h) pH 5.0 [3]: *** (>80%)
- % rem. (24 h) pH 5.0 [3]: *** (>80%)
- % rem. (2 h) pH 7.4 [3]: *** (>80%)
- % rem. (24 h) pH 7.4 [3]: *** (>80%)
- % rem. (2 h) pH 9.0 [3]: *** (>80%)
- % rem. (24 h) pH 9.0 [3]: *** (>80%)
- IC50 (human neutrophils): 0.01 to 100 nM

Compound: COc1ccc2c(c1OC)CCn1c(NCC3CCCO3)cc(=O)c(C)c1-2 (stereo not shown) [Compound 10, 8,9-dimethoxy-1-methyl-4-(tetrahydrofuran-2-ylmethylamino)-6,7-dihydrobenzo[a]quinolizin-2-one]
- IC50 (GPR84 [2]): 0.01 to 100 nM
- % rem. (2 h) pH 1.2 [3]: *** (>80%)
- % rem. (24 h) pH 1.2 [3]: *** (>80%)
- % rem. (2 h) pH 5.0 [3]: *** (>80%)
- % rem. (24 h) pH 5.0 [3]: *** (>80%)
- % rem. (2 h) pH 7.4 [3]: *** (>80%)
- % rem. (24 h) pH 7.4 [3]: *** (>80%)
- % rem. (2 h) pH 9.0 [3]: *** (>80%)
- % rem. (24 h) pH 9.0 [3]: *** (>80%)
- IC50 (human neutrophils): 0.01 to 100 nM

Compound: COc1ccc2c(c1OC)CCn1c(OC[C@@H]3COCCO3)cc(=O)c(C)c1-2 [Compound 12, 4-[[(2S)-1,4-dioxan-2-yl]methoxy]-8,9-dimethoxy-1-methyl-6,7-dihydrobenzo[a]quinolizin-2-one]
- IC50 (GPR84 [2]): 100 to 500 nM
- % rem. (2 h) pH 1.2 [3]: *** (>80%)
- % rem. (24 h) pH 1.2 [3]: *** (>80%)
- % rem. (2 h) pH 5.0 [3]: *** (>80%)
- % rem. (24 h) pH 5.0 [3]: *** (>80%)
- % rem. (2 h) pH 7.4 [3]: *** (>80%)
- % rem. (24 h) pH 7.4 [3]: *** (>80%)
- % rem. (2 h) pH 9.0 [3]: *** (>80%)
- % rem. (24 h) pH 9.0 [3]: *** (>80%)
- IC50 (human neutrophils): 100 to 500 nM

Compound: Cc1c2n(c(OC[C@@H]3COCCO3)cc1=O)CCc1cc(OCC(F)(F)F)ccc1-2 [Compound 18, 4-[[(2S)-1,4-dioxan-2-yl]methoxy]-1-methyl-9-(2,2,2-trifluoroethoxy)-6,7-dihydrobenzo[a]quinolizin-2-one]
- IC50 (GPR84 [2]): 0.01 to 100 nM
- % rem. (2 h) pH 1.2 [3]: *** (>80%)
- % rem. (24 h) pH 1.2 [3]: *** (>80%)
- % rem. (2 h) pH 5.0 [3]: *** (>80%)
- % rem. (24 h) pH 5.0 [3]: *** (>80%)
- % rem. (2 h) pH 7.4 [3]: *** (>80%)
- % rem. (24 h) pH 7.4 [3]: *** (>80%)
- % rem. (2 h) pH 9.0 [3]: *** (>80%)
- % rem. (24 h) pH 9.0 [3]: *** (>80%)
- IC50 (human neutrophils): 0.01 to 100 nM

Compound: CCCCCCCCCC(=O)O [capric acid]
- secretion of interleukin-12 p40 subunit (IL-12 p40) [4]: dose dependently increased

Compound: CCCCCCCCCCCC(=O)O [lauric acid]
- secretion of interleukin-12 p40 subunit (IL-12 p40) [4]: dose dependently increased

Compound: CCCCCCCCCCC(=O)O [undecanoic acid]
- secretion of interleukin-12 p40 subunit (IL-12 p40) [4]: dose dependently increased
